According to US9206159B2, “Piperazine-piperidine compounds as hepatitis C virus inhibitors” (Theravance Biopharma R&D IP, LLC, priority 2012, dated 2015):

Tested on: HCV genotype 1a replicon cell line
Experiment: HCV Genotype 1a Replicon Assay
Assay type: cell-based, hepatitis C virus
Conditions: Huh7.5 cell background, NS3-specific protease activity in lysates, 48 or 72 hours
Procedure: Assay 2: HCV Genotype 1a Replicon Assay
The HCV genotype 1a replicon cell line was obtained from Apath LLC (APC89; Huh7.5 cell background). This subgenomic replicon contains the N-terminus of the HCV core protein fused to the neomycin-resistance selectable marker. The EMCV IRES lies downstream and drives expression of the non-structural proteins NS3-NS5B. Compound potencies were determined using the NS3-specific protease activity in lysates as a measurement of compound inhibition of replicon levels.
Cells were grown at 37° C. in a 5% CO2 humidified incubator in DMEM (Invitrogen) with 10% FBS (HyClone), 1×NEAA (Invitrogen), 1× Pen-Strep (Invitrogen), and 850 μg/mL G418 (Invitrogen). On day 1 of the assay, cells were plated at 15,000 cells/well in black 96-well tissue culture plates (Costar) in 200 μL media lacking G418. Four hours later, once the cells had adhered, the media was removed and replaced with media (no G418) containing dose-responses of test compounds. Compounds were initially diluted in DMSO and then diluted another 200× in media to bring the final DMSO concentration down to 0.5%. The cells were incubated with test compounds for 48 or 72 hours. At the end of the incubation period, media and compound were removed from the plates.
To determine the NS3-specific protease activity in lysates, the cells were lysed at room temperature in 50 μL/well of 50 mM Hepes pH 7.5, 150 mM NaCl, 15% Glycerol, 0.15% Triton X-100, 10 mM DTT for 20 minutes with shaking. 50 μL of an NS3/4a protease-specific FRET substrate (Anaspec RET SI Cat#22991) was then added to the wells at a final concentration of 15 μM. The plates were incubated at 37° C. for 20 minutes, which corresponds to a timepoint at which the protease activity is still in the linear phase. Protease activity was determined by measuring fluorescence (Excitation: 340 nm; Emission: 509 nm).
To analyze the data, the fluorescence was plotted vs. the compound concentration, and EC50 values were determined from a 4-parameter robust fit model using GraphPad Prism software.

Row | Structure (SMILES) | Genotype 1a (pEC50 class)
1 | COC(=O)N[C@H](C(=O)N1C[C@@H](C)C[C@H]1c1nc(-c2ccc(-c3cc(F)c(NC(=O)N4CCN(C5CCN(C(=O)OC(C)(C)C)CC5)CC4)cc3OC(F)(F)F)cc2)c[nH]1)C(C)C [Example 2-2] | D (D represents pEC50>10 (EC50<0.1 nM))
2 | COC(=O)N[C@H](C(=O)N1C[C@@H](C)C[C@H]1c1nc(-c2ccc(-c3cc(F)c(NC(=O)N4CCN(C5CCN(C(=O)C6CC6)CC5)CC4)cc3OC(F)(F)F)cc2)c[nH]1)C(C)C [Example 2-3] | D (D represents pEC50>10 (EC50<0.1 nM))
3 | CNC(=O)N1CCC(N2CCN(C(=O)Nc3cc(OC(F)(F)F)c(-c4ccc(-c5c[nH]c([C@@H]6C[C@H](C)CN6C(=O)[C@@H](NC(=O)OC)C(C)C)n5)cc4)cc3F)CC2)CC1 [Example 2-4] | D (D represents pEC50>10 (EC50<0.1 nM))
4 | CNC(=O)N1CCC(N2CCN(C(=O)Nc3cc(OC(F)(F)F)c(-c4ccc(-c5c[nH]c([C@@H]6C[C@H](C)CN6C(=O)[C@@H](NC(=O)OC)C(C)C)n5)cc4)cc3Cl)CC2)CC1 [Example 2-7] | C (C represents pEC50 between and 9 and about 10, (EC50 between 1 nM and 0.1 nM))
5 | COC(=O)N[C@H](C(=O)N1C[C@@H](C)C[C@H]1c1nc(-c2ccc(-c3cc(Cl)c(NC(=O)N4CCN(C5CCN(C(=O)OC(C)(C)C)CC5)CC4)cc3OC(F)(F)F)cc2)c[nH]1)C(C)C [Example 2-8] | C (C represents pEC50 between and 9 and about 10, (EC50 between 1 nM and 0.1 nM))
6 | COC(=O)N[C@H](C(=O)N1C[C@@H](C)C[C@H]1c1nc(-c2ccc(-c3ccc(NC(=O)N4CCN(C5CCN(C(=O)C6CC6(F)F)CC5)CC4)cc3OC(F)(F)F)cc2)c[nH]1)C(C)C (stereo partly drawn) [Example 2-10] | C (C represents pEC50 between and 9 and about 10, (EC50 between 1 nM and 0.1 nM))
7 | COC(=O)N[C@H](C(=O)N1C[C@@H](C)C[C@H]1c1nc(-c2ccc(-c3ccc(NC(=O)N4CCN(C5CCN(C(=O)[C@H]6CC6(C)C)CC5)CC4)cc3OC(F)(F)F)cc2)c[nH]1)C(C)C [Example 2-11] | D (D represents pEC50>10 (EC50<0.1 nM))
8 | CNC(=O)N1CCC(N2CCN(C(=O)Nc3ccc(-c4ccc(-c5c[nH]c([C@@H]6C[C@H](C)CN6C(=O)[C@@H](NC(=O)OC)C(C)C)n5)cc4)c(OC(F)(F)F)c3)CC2)CC1 [Example 2-12] | C (C represents pEC50 between and 9 and about 10, (EC50 between 1 nM and 0.1 nM))
9 | COC(=O)N[C@H](C(=O)N1C[C@@H](C)C[C@H]1c1nc(-c2ccc(-c3cc(F)c(NC(=O)N4CCN(C5CCN(C(=O)C6CC6(F)Cl)CC5)CC4)cc3OC(F)(F)F)cc2)c[nH]1)C(C)C (stereo partly drawn) [Example 2-14] | C (C represents pEC50 between and 9 and about 10, (EC50 between 1 nM and 0.1 nM))
10 | COC(=O)N[C@H](C(=O)N1C[C@@H](C)C[C@H]1c1nc(-c2ccc(-c3cc(F)c(NC(=O)N4CCN(C5CCN(C(=O)C6CC6(Cl)Cl)CC5)CC4)cc3OC(F)(F)F)cc2)c[nH]1)C(C)C (stereo partly drawn) [Example 2-15] | C (C represents pEC50 between and 9 and about 10, (EC50 between 1 nM and 0.1 nM))
11 | COC(=O)N[C@H](C(=O)N1C[C@@H](C)C[C@H]1c1nc(-c2ccc(-c3ccc(NC(=O)N4CCN(C5CCN(C(=O)OC(C)(C)C)CC5)CC4)cc3OC(F)(F)F)cc2)c(Cl)[nH]1)C(C)C [Example 2-18] | C (C represents pEC50 between and 9 and about 10, (EC50 between 1 nM and 0.1 nM))
12 | COC(=O)N[C@H](C(=O)N1C[C@@H](C)C[C@H]1c1nc(-c2ccc(-c3cc(Cl)c(NC(=O)N4CCN(C5CCN(C(=O)C6CC(F)(F)C6)CC5)CC4)cc3OC(F)(F)F)cc2)c[nH]1)C(C)C [Example 2-22] | B (B represents pEC50 between 8 and 9 (EC50 between 1 and 10 nM))
13 | [2H]C([2H])([2H])C1(C([2H])([2H])[2H])CC1C(=O)N1CCC(N2CCN(C(=O)Nc3cc(OC(F)(F)F)c(-c4ccc(-c5c[nH]c([C@@H]6C[C@H](C)CN6C(=O)[C@@H](NC(=O)OC)C(C)C)n5)cc4)cc3Cl)CC2)CC1 (stereo partly drawn) [Example 2-23] | C (C represents pEC50 between and 9 and about 10, (EC50 between 1 nM and 0.1 nM))
14 | COC(=O)N[C@H](C(=O)N1C[C@@H](C)C[C@H]1c1nc(-c2ccc(-c3cc(Cl)c(NC(=O)N4CCN(C5CCN(C(=O)C6CC67CC7)CC5)CC4)cc3OC(F)(F)F)cc2)c[nH]1)C(C)C (stereo partly drawn) [Example 2-24] | B (B represents pEC50 between 8 and 9 (EC50 between 1 and 10 nM))
15 | COC(=O)N[C@H](C(=O)N1C[C@@H](C)C[C@H]1c1nc(-c2ccc(-c3cc(Cl)c(NC(=O)N4CCN(C5CCN(C(=O)C6CC(C)(C)C6)CC5)CC4)cc3OC(F)(F)F)cc2)c[nH]1)C(C)C [Example 2-25] | B (B represents pEC50 between 8 and 9 (EC50 between 1 and 10 nM))
16 | COC(=O)N[C@H](C(=O)N1C[C@@H](C)C[C@H]1c1nc(-c2ccc(-c3ccc(NC(=O)N4CCN(C5CCN(C(=O)C6CC6)CC5)CC4)cc3OC(F)(F)F)cc2)c(Cl)[nH]1)C(C)C [Example 2-26] | D (D represents pEC50>10 (EC50<0.1 nM))
17 | [2H]C([2H])([2H])C1(C([2H])([2H])[2H])CC1C(=O)N1CCC(N2CCN(C(=O)Nc3ccc(-c4ccc(-c5nc([C@@H]6C[C@H](C)CN6C(=O)[C@@H](NC(=O)OC)C(C)C)[nH]c5Cl)cc4)c(OC(F)(F)F)c3)CC2)CC1 (stereo partly drawn) [Example 2-27] | D (D represents pEC50>10 (EC50<0.1 nM))
18 | COC(=O)N[C@H](C(=O)N1C[C@@H](C)C[C@H]1c1nc(-c2ccc(-c3ccc(NC(=O)N4CCN(C5CCN(C(=O)OC(C)(C)C)CC5)CC4)cc3OC(F)(F)F)cc2)c(F)[nH]1)C(C)C [Example 2-28] | D (D represents pEC50>10 (EC50<0.1 nM))
19 | COC(=O)N[C@H](C(=O)N1C[C@@H](C)C[C@H]1c1nc(-c2ccc(-c3ccc(NC(=O)N4CCN(C5CCN(C(=O)C(C)(C)CO)CC5)CC4)cc3OC(F)(F)F)cc2)c[nH]1)C(C)C [Example 2-29] | C (C represents pEC50 between and 9 and about 10, (EC50 between 1 nM and 0.1 nM))
20 | COC(=O)N[C@H](C(=O)N1CCC[C@H]1c1nc(-c2ccc(-c3ccc(NC(=O)N4CCC(N5CCN(C(=O)OC(C)(C)C)CC5)CC4)cc3)cc2)c[nH]1)C(C)C [Example 3-1] | A (A represents a pEC50 value between 6 and 8 (EC50 between 1 μM and 10 nM))
21 | COC(=O)N[C@H](C(=O)N1CCC[C@H]1c1nc(-c2ccc(-c3ccc(NC(=O)N4CCC(N5CCN(C(=O)C6CC6)CC5)CC4)cc3)cc2)c[nH]1)C(C)C [Example 3-3] | A (A represents a pEC50 value between 6 and 8 (EC50 between 1 μM and 10 nM))
22 | CNC(=O)N1CCN(C2CCN(C(=O)Nc3ccc(-c4ccc(-c5c[nH]c([C@@H]6CCCN6C(=O)[C@@H](NC(=O)OC)C(C)C)n5)cc4)cc3)CC2)CC1 [Example 3-5] | A (A represents a pEC50 value between 6 and 8 (EC50 between 1 μM and 10 nM))
23 | COC(=O)N[C@H](C(=O)N1CCC[C@H]1c1nc(-c2ccc(-c3ccc(NC(=O)N4CCC(N5CCN(C(=O)OC)CC5)CC4)cc3)cc2)c[nH]1)C(C)C [Example 3-6] | A (A represents a pEC50 value between 6 and 8 (EC50 between 1 μM and 10 nM))
24 | COC(=O)N[C@H](C(=O)N1CCC[C@H]1c1nc(-c2ccc(-c3ccc(NC(=O)N4CCC(N5CCN(C(=O)OC(C)(C)C)[C@H](C)C5)CC4)cc3OC(F)(F)F)cc2)c[nH]1)C(C)C [Example 3-7] | B (B represents pEC50 between 8 and 9 (EC50 between 1 and 10 nM))
25 | COC(=O)N[C@H](C(=O)N1CCC[C@H]1c1nc(-c2ccc(-c3ccc(NC(=O)N4CCC(N5CCN(C(=O)[C@H]6CC6(C)C)[C@H](C)C5)CC4)cc3OC(F)(F)F)cc2)c[nH]1)C(C)C [Example 3-8] | B (B represents pEC50 between 8 and 9 (EC50 between 1 and 10 nM))
26 | COC(=O)N[C@H](C(=O)N1C[C@@H](C)C[C@H]1c1nc(-c2ccc(-c3cc(Cl)c(NC(=O)N4CCN(C5CCN(C(=O)[C@H]6CC6(C)C)CC5)CC4)cc3OC(F)(F)F)cc2)c[nH]1)C(C)C [Example 3] | C (C represents pEC50 between and 9 and about 10, (EC50 between 1 nM and 0.1 nM))
27 | COC(=O)N[C@H](C(=O)N1C[C@@H](C)C[C@H]1c1nc(-c2ccc(-c3cc(Cl)c(NC(=O)N4CCC(N5CCN(C(=O)OC(C)(C)C)[C@@H](C)C5)CC4)cc3OC(F)(F)F)cc2)c[nH]1)C(C)C [Example 4-1] | A (A represents a pEC50 value between 6 and 8 (EC50 between 1 μM and 10 nM))
